# According to ChEMBL document CHEMBL5528085, “Subtle Structural Changes across the Boundary between A2AR/A2BR Dual Antagonism and A2BR Antagonism: A Novel Class of 2-Aminopyrimidine-Based Derivatives” (J Med Chem, 2024):
# Activity calls are given as the source filed them. No cut-off for these calls is given here.
# Assays:
# Adenosine receptor A2a [1] = biological target: T1, Adenosine receptor A2a (Homo sapiens, UniProt P29274); assay: Antagonist activity at human adenosine 2A receptor overexpressed in HEK293 cells preincubated for 0.5 hrs followed by NECA stimulation by GloSensor cAMP assay; type: functional, cell-based
# Adenosine receptor A2b [2] = biological target: T2, Adenosine receptor A2b (Homo sapiens, UniProt P29275); assay: Antagonist activity at human adenosine 2B receptor overexpressed in HEK293 cells preincubated for 0.5 hrs followed by NECA stimulation by GloSensor cAMP assay; type: functional, cell-based
# T2 sequence (P29275 whole entry): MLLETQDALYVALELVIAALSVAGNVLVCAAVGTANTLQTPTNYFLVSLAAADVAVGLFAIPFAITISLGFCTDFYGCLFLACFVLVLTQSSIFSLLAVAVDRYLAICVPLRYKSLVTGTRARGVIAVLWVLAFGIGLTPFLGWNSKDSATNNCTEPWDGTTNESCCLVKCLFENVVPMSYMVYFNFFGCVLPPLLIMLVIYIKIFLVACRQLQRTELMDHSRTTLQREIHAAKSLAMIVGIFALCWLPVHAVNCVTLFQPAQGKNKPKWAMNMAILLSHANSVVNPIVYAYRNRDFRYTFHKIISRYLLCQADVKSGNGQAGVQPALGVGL
# Homo sapiens = species on record: Homo sapiens; assay: Selectivity ratio of IC50 for antagonist activity at human adenosine 2A receptor overexpressed in HEK293 cells to IC50 for antagonist activity at human adenosine 2B receptor overexpressed in HEK293 cells; type: cell-based
# Adenosine receptor A1 = biological target: T3, Adenosine receptor A1 (Homo sapiens, UniProt P30542); assay: Antagonist activity at human Adenosine A1 receptor overexpressed in HEK293 cells preincubated for 0.5 hrs followed by NECA stimulation by GloSensor cAMP assay; type: functional, cell-based
# T3 sequence (P30542 whole entry): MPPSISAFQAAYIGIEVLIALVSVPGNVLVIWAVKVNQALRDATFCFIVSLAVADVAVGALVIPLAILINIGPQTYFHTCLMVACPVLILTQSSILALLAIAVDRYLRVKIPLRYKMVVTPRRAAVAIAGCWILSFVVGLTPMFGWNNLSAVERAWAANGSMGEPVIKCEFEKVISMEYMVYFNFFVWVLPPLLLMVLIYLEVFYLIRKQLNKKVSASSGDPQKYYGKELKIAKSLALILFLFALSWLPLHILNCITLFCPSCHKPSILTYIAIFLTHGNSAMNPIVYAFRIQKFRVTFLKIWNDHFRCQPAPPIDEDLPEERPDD
# Adenosine receptor A2b [3] = biological target: T2, Adenosine receptor A2b; assay: Antagonist activity at human adenosine 2B receptor overexpressed in HEK293 cells preincubated for 0.5 hrs followed by NECA stimulation by Schild plot based GloSensor cAMP assay; type: functional, cell-based; settings: read-out: pA2 (converted)
# Adenosine receptor A2a [4] = biological target: T1, Adenosine receptor A2a; assay: (§1) Antagonist activity at human adenosine 2A receptor expressed in HEK293 cells co-expressing CRE-luciferase plasmid assessed as inhibition of NECA-stimulated luciferase expression preincubated with compound for 0.5 hrs followed by NECA stimulation and measured after 4 hrs by luciferase based CRE reporter assay; type: functional, cell-based
# [5] = Downregulation of NECA-induced TIM-3 expression in human Jurkat T cells at 0.1 to 10 uM incubated for 5 hrs in presence of PMA and ionomycin by q-PCR analysis; type: functional; settings: dose 0.1-10 µM
# [6] = Downregulation of NECA-induced PD-1 expression in human Jurkat T cells at 0.1 to 10 uM incubated for 5 hrs in presence of PMA and ionomycin by q-PCR analysis; type: functional; settings: dose 0.1-10 µM
# Adenosine receptor A3 = biological target: T4, Adenosine receptor A3 (Homo sapiens, UniProt P0DMS8); assay: Antagonist activity at human Adenosine A3 receptor overexpressed in HEK293 cells preincubated for 0.5 hrs followed by NECA stimulation by GloSensor cAMP assay; type: functional, cell-based
# T4 sequence (P0DMS8 whole entry): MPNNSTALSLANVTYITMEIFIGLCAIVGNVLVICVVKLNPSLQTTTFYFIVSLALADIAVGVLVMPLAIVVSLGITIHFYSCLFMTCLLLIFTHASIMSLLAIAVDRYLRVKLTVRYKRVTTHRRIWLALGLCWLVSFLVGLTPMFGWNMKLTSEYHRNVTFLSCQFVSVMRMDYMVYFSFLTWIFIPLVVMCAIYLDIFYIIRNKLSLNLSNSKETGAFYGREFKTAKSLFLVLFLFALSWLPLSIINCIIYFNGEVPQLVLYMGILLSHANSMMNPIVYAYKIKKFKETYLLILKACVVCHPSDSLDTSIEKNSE
# Adenosine receptor A2a [7] = biological target: T1, Adenosine receptor A2a; assay: Antagonist activity at human adenosine 2A receptor overexpressed in HEK293 cells preincubated for 0.5 hrs followed by NECA stimulation by Schild plot based GloSensor cAMP assay; type: functional, cell-based; settings: read-out: pA2 (converted)
# Adenosine receptor A2b [8] = biological target: T2, Adenosine receptor A2b; assay: as §1, with “2B” for “2A”; type: functional, cell-based
# MC38-OVA = assay: Induction of T-cell mediated cell death in mouse MC38-OVA cells co-cultured with OT-1 CTL assessed as reversal of NECA-induced impairment in OT-I CTL mediated cell killing at 10 uM incubated for 48 hrs by calcein AM dye based fluorescence microscopic analysis; type: functional
# Adenosine receptor A2a [9] = biological target: T1, Adenosine receptor A2a; assay: Antagonist activity at adenosine 2A receptor (unknown origin)
# Adenosine receptor A2b [10] = biological target: T2, Adenosine receptor A2b; assay: Antagonist activity at adenosine 2B receptor (unknown origin); type: functional
# T1 sequence (P29274 whole entry): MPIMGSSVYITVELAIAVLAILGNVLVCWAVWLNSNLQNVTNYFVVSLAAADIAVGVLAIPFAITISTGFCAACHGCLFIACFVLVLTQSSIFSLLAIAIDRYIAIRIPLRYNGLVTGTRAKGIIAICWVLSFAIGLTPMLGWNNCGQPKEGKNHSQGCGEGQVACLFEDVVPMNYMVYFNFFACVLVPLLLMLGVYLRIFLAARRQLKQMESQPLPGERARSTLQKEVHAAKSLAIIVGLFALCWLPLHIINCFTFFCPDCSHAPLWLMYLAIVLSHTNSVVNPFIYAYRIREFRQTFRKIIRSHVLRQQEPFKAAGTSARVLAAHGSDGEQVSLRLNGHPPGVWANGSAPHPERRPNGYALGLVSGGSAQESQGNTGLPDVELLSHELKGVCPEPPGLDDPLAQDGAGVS
IC50 (Adenosine receptor A2a [1]),IC50 (Adenosine receptor A2b [2]),SMILES,Ratio IC50 (Homo sapiens),other results
69.9 nM,103 nM,Cc1c(C#N)cccc1-c1cc(-c2cn(Cc3c[nH]c4ccc(OC(C)C)cc34)nn2)nc(N)n1,0.7,–
34.8 nM,131 nM,Cc1c(C#N)cccc1-c1cc(-c2cn(Cc3csc4ccccc34)nn2)nc(N)n1,0.3,–
11.2 nM,6.4 nM,Cc1c(C#N)cccc1-c1cc(-c2cn(Cc3c[nH]c4ccc(C#N)cc34)nn2)nc(N)n1,1.8,IC50 (Adenosine receptor A1): > 1000 nM; Kb (Adenosine receptor A2b [3]): 1.32 nM; IC50 (Adenosine receptor A2a [4]): 7.3 nM; Activity [5]: ~100%; Activity [6]: ~100%; IC50 (Adenosine receptor A3): > 1000 nM; Kb (Adenosine receptor A2a [7]): 1.62 nM; IC50 (Adenosine receptor A2b [8]): 8.1 nM; Activity (MC38-OVA): Active
3850 nM,30.6 nM,Cc1c(C#N)cccc1-c1cc(-c2cn(Cc3c[nH]c4cc(OC(C)C)ccc34)nn2)nc(N)n1,126,–
112 nM,43.8 nM,Cc1c(C#N)cccc1-c1cc(-c2cn(Cc3c[nH]c4ccccc34)nn2)nc(N)n1,2.6,–
431 nM,3.4 nM,Cc1c(C#N)cccc1-c1cc(-c2cn(Cc3c[nH]c4cc(S(C)(=O)=O)ccc34)nn2)nc(N)n1,127,–
–,–,COc1ncc(C2=CCOCC2)c2sc(NC(=O)N3CC[C@@]4(CCCOC4)C3)nc12 [MUVADENANT],–,IC50 (Adenosine receptor A2a [9]): < 10 nM; IC50 (Adenosine receptor A2b [10]): < 10 nM
18.3 nM,9.7 nM,Cc1c(C#N)cccc1-c1cc(-c2cn(Cc3c[nH]c4ccc(S(C)(=O)=O)cc34)nn2)nc(N)n1,1.9,–
> 100000 nM,> 100000 nM,Cc1c(C#N)cccc1-c1cc(-c2cn(Cc3cnc4ccccn34)nn2)nc(N)n1,–,–
–,3.6 nM,Cc1c(C#N)cccc1-c1cc(-c2cn(Cc3c[nH]c4cccnc34)nn2)nc(N)n1,–,–
324 nM,48.6 nM,Cc1ccc2c(Cn3cc(-c4cc(-c5cccc(C#N)c5C)nc(N)n4)nn3)c[nH]c2c1,6.7,–
> 100000 nM,> 100000 nM,Cc1c(C#N)cccc1-c1cc(-c2cn(Cc3cn(C)c4ccccc34)nn2)nc(N)n1,–,–
1140 nM,1080 nM,Cc1c(C#N)cccc1-c1cc(-c2cn(Cc3c[nH]c4c(Cl)cccc34)nn2)nc(N)n1,1.1,–
5820 nM,> 100000 nM,Cc1c(C#N)cccc1-c1cc(-c2cn(Cc3cccc4[nH]ccc34)nn2)nc(N)n1,–,–
244 nM,45.4 nM,Cc1c(C#N)cccc1-c1cc(-c2cn(Cc3c[nH]c4ccc(Cl)cc34)nn2)nc(N)n1,5.4,–
7.5 nM,31.4 nM,Cc1c(C#N)cccc1-c1cc(-c2cn(Cc3cccc(C(C)(C)O)n3)nn2)nc(N)n1 [ETRUMADENANT],0.2,IC50 (Adenosine receptor A1): 87.3 nM; Ki (Adenosine receptor A2a [9]): 0.851 nM; Ki (Adenosine receptor A2b [10]): 3.16 nM
70.2 nM,38.2 nM,COC(=O)c1ccc2[nH]cc(Cn3cc(-c4cc(-c5cccc(C#N)c5C)nc(N)n4)nn3)c2c1,1.8,–
1910 nM,11.1 nM,Cc1c(C#N)cccc1-c1cc(-c2cn(Cc3c[nH]c4cnccc34)nn2)nc(N)n1,172,–
–,44.7 nM,COc1ccc2[nH]cc(Cn3cc(-c4cc(-c5cccc(C#N)c5C)nc(N)n4)nn3)c2c1,–,–

IC50 (Adenosine receptor A2a [1]),IC50 (Adenosine receptor A2b [2]),SMILES,Ratio IC50 (Homo sapiens),other results
133 nM,27.6 nM,COc1ccc2c(Cn3cc(-c4cc(-c5cccc(C#N)c5C)nc(N)n4)nn3)c[nH]c2c1,4.8,–
103 nM,43.4 nM,Cc1ccc2[nH]cc(Cn3cc(-c4cc(-c5cccc(C#N)c5C)nc(N)n4)nn3)c2c1,2.4,–
6320 nM,209 nM,Cc1c(C#N)cccc1-c1cc(-c2cn(Cc3c[nH]c4cc(Cl)c(Cl)cc34)nn2)nc(N)n1,30.2,–
2260 nM,215 nM,Cc1c(C#N)cccc1-c1cc(-c2cn(Cc3c[nH]c4ncccc34)nn2)nc(N)n1,10.5,–
> 100000 nM,97.7 nM,COC(=O)c1ccc2c(Cn3cc(-c4cc(-c5cccc(C#N)c5C)nc(N)n4)nn3)c[nH]c2c1,–,–
97.4 nM,349 nM,Cc1c(C#N)cccc1-c1cc(-c2cn(Cc3c[nH]c4ccc(OC5CCCC5)cc34)nn2)nc(N)n1,0.3,–
7860 nM,> 100000 nM,Cc1c(C#N)cccc1-c1cc(-c2cn(Cc3cccc4cc[nH]c34)nn2)nc(N)n1,–,–
–,71.6 nM,Cc1c(C#N)cccc1-c1cc(-c2cn(Cc3c[nH]c4cc(OC5CCCC5)ccc34)nn2)nc(N)n1,–,–
120 nM,13.7 nM,Cc1c(C#N)cccc1-c1cc(-c2cn(Cc3c[nH]c4cc(F)ccc34)nn2)nc(N)n1,8.8,–
11.6 nM,101 nM,Cc1c(C#N)cccc1-c1cc(-c2cn(Cc3csc4c3CCCC4)nn2)nc(N)n1,0.1,–
63.3 nM,14.3 nM,Cc1c(C#N)cccc1-c1cc(-c2cn(Cc3c[nH]c4ccc(F)cc34)nn2)nc(N)n1,4.4,–
427 nM,134 nM,Cc1c(C#N)cccc1-c1cc(-c2cn(Cc3ccc4cc[nH]c4c3)nn2)nc(N)n1,3.2,–
172 nM,316 nM,Cc1c(C#N)cccc1-c1cc(-c2cn(Cc3c[nH]c4cccc(Cl)c34)nn2)nc(N)n1,0.5,–
129 nM,41.7 nM,Cc1c(C#N)cccc1-c1cc(-c2cn(Cc3n[nH]c4ccccc34)nn2)nc(N)n1,3.1,–
242 nM,2.6 nM,Cc1c(C#N)cccc1-c1cc(-c2cn(Cc3c[nH]c4cc(C#N)ccc34)nn2)nc(N)n1,93.2,–
753 nM,55.8 nM,Cc1c(C#N)cccc1-c1cc(-c2cn(Cc3c[nH]c4cc(Cl)ccc34)nn2)nc(N)n1,13.5,–
–,654 nM,Cc1c(C#N)cccc1-c1cc(-c2cn(Cc3cc4ccccc4[nH]3)nn2)nc(N)n1,–,–
169 nM,11.6 nM,Cc1c(C#N)cccc1-c1cc(-c2cn(Cc3c[nH]c4ccncc34)nn2)nc(N)n1,14.6,–
1010 nM,43.1 nM,Cc1c(C#N)cccc1-c1cc(-c2cn(Cc3ccc4[nH]ccc4c3)nn2)nc(N)n1,23.5,–
